Reference: patent US10815200B2, “18F—tagged inhibitors of prostate specific membrane antigen (PSMA) and their use as imaging agents for prostate cancer” (DEUTSCHES KREBSFORSCHUNGSZENTRUM, priority 2015, dated 2020)
Square brackets hold non-standard residues; d marks the D form. Peptide text beside a SMILES is read from it. * marks the point of attachment. X1 = O=C(O)CCC(NC(=O)NC(CCCCN*)C(=O)O)C(=O)O; 2Nal = N[CH](Cc1ccc2ccccc2c1)C(=O)O; Nicotinoyl(6-F) = O=C(c1ccc(F)nc1)*; 4Amb = NCc1ccc(C(=O)O)cc1

Key:
PSMA = molecular target: T1, PSMA (Homo sapiens, UniProt Q04609); experiment: Competitive cell binding assay (binding affinity) on LNCaP cells against 68Ga-labeled [Glu-urea-Lys(Ahx)]2-HBED-CC; details: competition with 68Ga-labeled [Glu-urea-Lys(Ahx)]2-HBED-CC, non-radioactive reference compounds
T1 construct: host or cells: LNCaP cells
T1 sequence (Q04609 whole entry): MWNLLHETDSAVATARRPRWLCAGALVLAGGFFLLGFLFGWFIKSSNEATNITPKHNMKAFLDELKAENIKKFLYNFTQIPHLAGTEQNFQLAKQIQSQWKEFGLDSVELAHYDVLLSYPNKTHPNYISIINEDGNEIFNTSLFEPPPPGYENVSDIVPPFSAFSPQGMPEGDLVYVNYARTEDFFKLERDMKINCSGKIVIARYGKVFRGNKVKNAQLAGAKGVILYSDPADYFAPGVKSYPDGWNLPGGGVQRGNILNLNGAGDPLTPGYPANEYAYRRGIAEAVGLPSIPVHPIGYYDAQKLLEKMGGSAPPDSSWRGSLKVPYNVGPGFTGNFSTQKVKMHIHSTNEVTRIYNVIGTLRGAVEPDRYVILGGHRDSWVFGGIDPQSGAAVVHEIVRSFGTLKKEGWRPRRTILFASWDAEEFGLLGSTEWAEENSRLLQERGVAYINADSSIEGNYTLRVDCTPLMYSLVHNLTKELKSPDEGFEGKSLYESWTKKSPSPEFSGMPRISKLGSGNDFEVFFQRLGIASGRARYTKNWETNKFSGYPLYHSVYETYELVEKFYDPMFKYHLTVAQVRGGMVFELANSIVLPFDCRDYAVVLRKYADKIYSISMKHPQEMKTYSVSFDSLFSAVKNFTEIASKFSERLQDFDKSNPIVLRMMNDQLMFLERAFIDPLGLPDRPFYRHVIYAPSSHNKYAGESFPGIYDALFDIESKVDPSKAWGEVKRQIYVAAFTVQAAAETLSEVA
Experimental: For binding studies and in vivo experiments LNCaP cells (metastatic lesion of human prostatic adenocarcinoma, ATCC CRL-1740) were cultured in RPMI medium supplemented with 10% fetal calf serum and Glutamax (PAA, Austria). During cell culture, cells were grown at 37° C. in an incubator with humidified air, equilibrated with 5% CO2. The cells were harvested using trypsin-ethylenediaminetetraacetic acid (trypsin-1.5 EDTA; 0.25% trypsin, 0.02% EDTA, all from PAA, Austria) and washed with PBS.
The competitive cell binding assay and internalization experiments were performed as described previously (Eder et al. Bioconjugate Chem. 2012, 23 (4), 688-697). Briefly, the respective cells (10^5 per well) were incubated with the radioligand (^68Ga-labeled [Glu-urea-Lys(Ahx)]2-HBED-CC (Schafer et al. EJNMMI Research 2012, 2:23 doi:10.1186/2191-219X-2-23))) in the presence of 12 different concentrations of analyte (0-5000 nM, 100 μL/well). After incubation, washing was carried out using a multiscreen vacuum manifold (Millipore, Billerica, Mass.). Cell-bound radioactivity was measured using a gamma counter (Packard Cobra II, GMI, Minnesota, USA). The 50% inhibitory concentration (IC50) was calculated by fitting the data using a nonlinear regression algorithm (GraphPad Software). Experiments were performed three times. Reference is made to Table A below.

LNCaP cells = experiment: Specific cell uptake and internalization in LNCaP cells; type: cell-based, human; details: for Cell surface / Internalised: 30 nM radiolabeled compound, 45 min, 37° C., specific (PMPA block); for Internalized fraction: (Internalized activity/total activity)*100
Experimental: During cell culture, cells were grown at 37° C. in an incubator with humidified air, equilibrated with 5% CO2. […] To determine the specific cell uptake and internalization, 10^5 cells were seeded in poly-L-lysine coated 24-well cell culture plates 24 h before incubation. After washing, the cells were incubated with 30 nM of the radiolabeled compounds for 45 min at 37° C. […] Cellular uptake was terminated by washing 3 times with 1 mL of ice-cold PBS. […] The cells were washed with 1 mL of ice-cold PBS and lysed using 0.3 N NaOH (0.5 mL). The surface-bound and the internalized fractions were measured in a gamma counter. The cell uptake was calculated as percent of the initially added radioactivity bound to 10^5 cells [% ID/10^5 cells].

IC50 (PSMA) | Compound | Cell surface (LNCaP cells) | Internalised (LNCaP cells) | Internalized fraction (LNCaP cells)
7 nM | O=C(O)CCC(NC(=O)NC(CCCCNC(=O)C(Cc1ccc2ccccc2c1)NC(=O)c1ccc(CNC(=O)C(CNC(=O)C(CNC(=O)c2ccc(F)nc2)S(=O)(=O)O)S(=O)(=O)O)cc1)C(=O)O)C(=O)O (stereo not shown) [PSMA-1027, (Glu)-(Urea)-(Lys)-(2-Nal)-(Bn)-(Sala)-(Sala)-FN] | – | – | –
8 nM | O=C(O)CCC(NC(=O)NC(CCCCNC(=O)C(Cc1ccc2ccccc2c1)NC(=O)CCC(NC(=O)CCC(NC(=O)c1ccc(F)nc1)C(=O)O)C(=O)O)C(=O)O)C(=O)O (stereo not shown) [PSMA-1022, (Glu)-(Urea)-(Lys)-(2-Nal)-(γGlu)-(γGlu)-FN] | – | – | –
– | O=C(O)CC[C@@H](NC(=O)N[C@H](CCCCNC(=O)[C@@H](Cc1ccc2ccccc2c1)NC(=O)[C@@H](CCC(=O)O)NC(=O)[C@@H](CCC(=O)O)NC(=O)c1ccnc([18F])c1)C(=O)O)C(=O)O [PSMA-1011, (Glu)-(Urea)-(Lys)-(2-Naphthylalanine)-(Glu)-(Glu)-FN] | 4.1 % ID/10^5 cells | 0.7 % ID/10^5 cells | 15%
9 nM | O=C(O)CCC(NC(=O)NC(CCCCNC(=O)C(Cc1ccc2ccccc2c1)NC(=O)CCC(NC(=O)C(CCC(=O)O)NC(=O)C(CCC(=O)O)NC(=O)c1ccc(F)nc1)C(=O)O)C(=O)O)C(=O)O (stereo not shown) [PSMA-1020, (Glu)-(Urea)-(Lys)-(2-Nal)-(γGlu)-(Glu)-(Glu)-FN] | – | – | –
14 nM | O=C(O)CCC(NC(=O)NC(CCCCNC(=O)C(Cc1ccc2ccccc2c1)NC(=O)c1ccc(CNC(=O)C(CNC(=O)c2ccc(F)nc2)S(=O)(=O)O)cc1)C(=O)O)C(=O)O (stereo not shown) [PSMA-1026, (Glu)-(Urea)-(Lys)-(2-Nal)-(Bn)-(Sala)-FN] | – | – | –
5 nM | O=C(O)CCC(NC(=O)NC(CCCCNC(=O)C(Cc1ccc2ccccc2c1)NC(=O)c1ccc(CNC(=O)C(CCC(=O)O)NC(=O)C(CCC(=O)O)NC(=O)c2ccc(F)nc2)cc1)C(=O)O)C(=O)O (stereo not shown) [PSMA-1007, (Glu)-(Urea)-(Lys)-(2-Nal)-(Bn)-(Glu)-(Glu)-FN] | – | – | –
– | O=C(O)CCC(NC(=O)NC(CCCCNC(=O)C(Cc1ccc2ccccc2c1)NC(=O)c1ccc(CNC(=O)C(CCC(=O)O)NC(=O)C(CCC(=O)O)NC(=O)c2ccc([18F])nc2)cc1)C(=O)O)C(=O)O [PSMA-1023, (Glu)-(Urea)-(Lys)-(2-Nal)-(Bn)-(D-Glu)-(D-Glu)-FN] | 6.5 % ID/10^5 cells | 3.2 % ID/10^5 cells | 33%
4 nM | O=C(O)CC[C@@H](NC(=O)N[C@H](CCCCNC(=O)[C@@H](Cc1ccc2ccccc2c1)NC(=O)c1ccc(CNC(=O)[C@@H](CCC(=O)O)NC(=O)c2ccnc(F)c2)cc1)C(=O)O)C(=O)O [PSMA-1015, (Glu)-(Urea)-(Lys)-(2-Nal)-(Bn)-(Glu)-FN] | – | – | –
– | O=C(O)CCC(NC(=O)NC(CCCCNC(=O)C(Cc1ccc2ccccc2c1)NC(=O)C1CCC(CNC(=O)C(CCC(=O)O)NC(=O)C(CCC(=O)O)NC(=O)c2ccc([18F])nc2)CC1)C(=O)O)C(=O)O (stereo not shown) [PSMA-1019, (Glu)-(Urea)-(Lys)-(2-Nal)-(Chx)-(Glu)-(Glu)-FN] | 5.5 % ID/10^5 cells | 1.9 % ID/10^5 cells | 26%
– | O=C(O)CCC(NC(=O)NC(CCCCNC(=O)C(Cc1ccc2ccccc2c1)NC(=O)CCC(NC(=O)C(CCC(=O)O)NC(=O)C(CCC(=O)O)NC(=O)c1ccc([18F])nc1)C(=O)O)C(=O)O)C(=O)O (stereo not shown) [PSMA-1020, (Glu)-(Urea)-(Lys)-(2-Nal)-(γGlu)-(Glu)-(Glu)-FN] | 6.8 % ID/10^5 cells | 1.5 % ID/10^5 cells | 18%
8 nM | O=C(O)CCC(NC(=O)NC(CCCCNC(=O)C(Cc1ccc2ccccc2c1)NC(=O)c1ccc(CNC(=O)C(CCC(=O)O)NC(=O)C(CCC(=O)O)NC(=O)c2ccc(F)nc2)cc1)C(=O)O)C(=O)O [PSMA-1023, (Glu)-(Urea)-(Lys)-(2-Nal)-(Bn)-(D-Glu)-(D-Glu)-FN] | – | – | –
14 nM | O=C(O)CCC(NC(=O)NC(CCCCNC(=O)C(Cc1ccc2ccccc2c1)NC(=O)c1ccc(CNC(=O)C(CCC(=O)O)NC(=O)C(CCC(=O)O)NC(=O)C(CCC(=O)O)NC(=O)c2ccc(F)nc2)cc1)C(=O)O)C(=O)O (stereo not shown) [PSMA-1018, (Glu)-(Urea)-(Lys)-(2-Nal)-(Bn)-(Glu)-(Glu)-(Glu)-FN] ({Nicotinoyl(6-F)}-EEE[4Amb][2Nal]-X1; configuration not given here) | – | – | –
– | O=C(O)CCC(NC(=O)NC(CCCCNC(=O)C(Cc1ccc2ccccc2c1)NC(=O)c1ccc(CNC(=O)C(CCC(=O)O)NC(=O)C(CCC(=O)O)NC(=O)c2ccc([18F])nc2)cc1)C(=O)O)C(=O)O [PSMA-1024, (Glu)-(Urea)-(Lys)-(2-Nal)-(Bn)-(D-Glu)-(Glu)-FN] | 5.3 % ID/10^5 cells | 2.1 % ID/10^5 cells | 28%
8 nM | O=C(O)CCC(NC(=O)NC(CCCCNC(=O)C(Cc1ccc2ccccc2c1)NC(=O)c1ccc(CNC(=O)C(CCC(=O)O)NC(=O)C(CCC(=O)O)NC(=O)c2ccc(F)nc2)cc1)C(=O)O)C(=O)O [PSMA-1024, (Glu)-(Urea)-(Lys)-(2-Nal)-(Bn)-(D-Glu)-(Glu)-FN] | – | – | –
– | O=C(O)CCC(NC(=O)NC(CCCCNC(=O)C(Cc1ccc2ccccc2c1)NC(=O)c1ccc(CNC(=O)C(CNC(=O)C(CNC(=O)c2ccc([18F])nc2)S(=O)(=O)O)S(=O)(=O)O)cc1)C(=O)O)C(=O)O (stereo not shown) [PSMA-1027, (Glu)-(Urea)-(Lys)-(2-Nal)-(Bn)-(Sala)-(Sala)-FN] | 0.9 % ID/10^5 cells | 1.4 % ID/10^5 cells | 60%
– | O=C(O)CC[C@H](NC(=O)N[C@@H](CCCCNC(=O)[C@@H](Cc1ccc2ccccc2c1)NC(=O)CC[C@@H](NC(=O)[C@@H](CCC(=O)O)NC(=O)c1ccnc([18F])c1)C(=O)O)C(=O)O)C(=O)O [PSMA-1012, (Glu)-(Urea)-(Lys)-(2-Naphthylalanine)-(γGlu)-(Glu)-FN] | 6.9 % ID/10^5 cells | 2.7 % ID/10^5 cells | 28%
– | O=C(O)CC[C@@H](NC(=O)N[C@H](CCCCNC(=O)[C@@H](Cc1ccc2ccccc2c1)NC(=O)c1ccc(CNC(=O)[C@@H](CCC(=O)O)NC(=O)c2ccnc([18F])c2)cc1)C(=O)O)C(=O)O [PSMA-1015, (Glu)-(Urea)-(Lys)-(2-Nal)-(Bn)-(Glu)-FN] | 14.3 % ID/10^5 cells | 6.0 % ID/10^5 cells | 30%
– | O=C(O)CCC(NC(=O)NC(CCCCNC(=O)C(Cc1ccc2ccccc2c1)NC(=O)c1ccc(CNC(=O)C(CCC(=O)O)NC(=O)C(CCC(=O)O)NC(=O)C(CCC(=O)O)NC(=O)c2ccc([18F])nc2)cc1)C(=O)O)C(=O)O (stereo not shown) [PSMA-1018, (Glu)-(Urea)-(Lys)-(2-Nal)-(Bn)-(Glu)-(Glu)-(Glu)-FN] | 1.1 % ID/10^5 cells | 0.9 % ID/10^5 cells | 45%
– | O=C(O)CCC(NC(=O)NC(CCCCNC(=O)C(Cc1ccc2ccccc2c1)NC(=O)c1ccc(CNC(=O)C(CNC(=O)c2ccc([18F])nc2)S(=O)(=O)O)cc1)C(=O)O)C(=O)O (stereo not shown) [PSMA-1026, (Glu)-(Urea)-(Lys)-(2-Nal)-(Bn)-(Sala)-FN] | 1.3 % ID/10^5 cells | 1.3 % ID/10^5 cells | 50%
– | O=C(O)CCC(NC(=O)NC(CCCCNC(=O)C(Cc1ccc2ccccc2c1)NC(=O)CCC(NC(=O)CCC(NC(=O)c1ccc([18F])nc1)C(=O)O)C(=O)O)C(=O)O)C(=O)O (stereo not shown) [PSMA-1022, (Glu)-(Urea)-(Lys)-(2-Nal)-(γGlu)-(γGlu)-FN] | 3.5 % ID/10^5 cells | 1.0 % ID/10^5 cells | 22%
12 nM | O=C(O)CCC(NC(=O)NC(CCCCNC(=O)C(Cc1ccc2ccccc2c1)NC(=O)C1CCC(CNC(=O)C(CCC(=O)O)NC(=O)C(CCC(=O)O)NC(=O)c2ccc(F)nc2)CC1)C(=O)O)C(=O)O (stereo not shown) [PSMA-1019, (Glu)-(Urea)-(Lys)-(2-Nal)-(Chx)-(Glu)-(Glu)-FN] | – | – | –

Compound | IC50 (PSMA) | Cell surface (LNCaP cells) | Internalised (LNCaP cells) | Internalized fraction (LNCaP cells)
O=C(O)CC[C@H](NC(=O)N[C@@H](CCCCNC(=O)[C@@H](Cc1ccc2ccccc2c1)NC(=O)CC[C@@H](NC(=O)[C@@H](CCC(=O)O)NC(=O)c1ccnc(F)c1)C(=O)O)C(=O)O)C(=O)O [PSMA-1012, (Glu)-(Urea)-(Lys)-(2-Naphthylalanine)-(γGlu)-(Glu)-FN] | 7 nM | – | – | –
(Glu)-(Urea)-(Lys)-(2-Nal)-(Bn)-(Gla)-FN [PSMA-1025] | 9 nM | 4.3 % ID/10^5 cells | 3.1 % ID/10^5 cells | 42%
O=C(O)CC[C@@H](NC(=O)N[C@H](CCCCNC(=O)[C@@H](Cc1ccc2ccccc2c1)NC(=O)[C@@H](CCC(=O)O)NC(=O)[C@@H](CCC(=O)O)NC(=O)c1ccnc(F)c1)C(=O)O)C(=O)O [PSMA-1011, (Glu)-(Urea)-(Lys)-(2-Naphthylalanine)-(Glu)-(Glu)-FN] | 7 nM | – | – | –
